From US20130039956A1, “USE OF NITROCARBOXYLIC ACIDS FOR THE TREATMENT, DIAGNOSIS AND PROPHYLAXIS OF AGGRESSIVE HEALING PATTERNS” (priority 2010, published 2013) come the findings set out here.

For one data set, the target named is T1, TRPV-1 (Mus musculus, UniProt Q704Y3).
T1 construct: Whole retinas were isolated and cut into 100 μm slices using a tissue slicer; from tissue; host or cells: mouse retinal slices (100 μm)
As to the kind of experiment: Signal transduction of receptors of the TRP-protein family in retinal slices. Also: key: 0: not superior to native FA (control); +: Superior to native FA; ++: superior to both; +++: outstanding effect. The class given is cell-based, mice. To be noted: 10 and 50 μmol, capsaicin 10 μmol or acid pH; compared with native FA. The procedure: In order to determine the effect of nitrated fatty acids on receptor signal transduction, an in vitro model was used. Retinal slices from cadaver mice were prepared as described by Snellman and Nawy (Snellman J. Nawy S (2004). cGMP-dependent kinase regulates response sensitivity of the mouse on bipolar cell. J Neurosci 24:6621-6628). Whole retinas were isolated and cut into 100 μm slices using a tissue slicer and than transferred to the recording chamber. The chamber was continuously perfused with Ames media and oxygenated. Picrotoxin (100 μM), strychnine (10 μM), and TPMPA (50 μM) were added. Each nitro fatty acid was added in two experiments to achieve a final concentration of 10 μmol, and in another two experiments to achieve a final concentration of 50 μmol. In two experiments, the corresponding native fatty acid was added to achieve a final concentration of 10 and 50 μmol, and in two experiments saline solution was added which served as controls. Currents were measured via tissue electrodes and monitored throughout the investigation. After incubating the solution for 2 hours, the TRPV-1 agonist capsaicin was added to achieve a final concentration of 10 μmol. Experiments were performed using either 10 mmol Hepes or 10 mmol Mes adjusting the pH of the solution to 6.4 or 4.4, respectively. Furthermore, experiments were performed without or with preincubation (5 minutes) of the TRPV-1 antagonist capsazepine. The solution temperature was held constant at 35° C.

For data set [1], the system named is Human epithelial lung cells (A549). As to the kind of experiment: Membrane protein mediated cytotoxicity (NaF) in epithelial cells, MTT assay. The following applies: 10 and 50 μmol, 2 hours preincubation, NaF 1-8 mmol; compared with native FA. (Tetrazolium dyes change colour on reduction, which living cells bring about.)
Protocol: Human epithelial lung cells (A549) were cultured and transferred to an isotonic medium. Cell suspensions were incubated with saline solution, native fatty acid (10 and 50 μmol), or nitro fatty acid (10 and 50 μmol) for 2 hours. Sodium fluoride (NaF) was added to achieve concentrations between 1 and 8 mmol. Cells were separated and washed after 24 hours of exposure. The MTT assay was used to evaluate apoptosis rates.
The subject of the next data set is macrophages. As to the kind of experiment: Foreign body model (fusion of macrophages, IL-4). Also: key: 0: not superior to native FA (control); +: Superior to native FA; ++: superior to both; +++: outstanding effect. The class given is cell-based. The following applies: polymeric coating on stainless steel; compared with native FA. The text has this:
Organisms react to the contact with a not completely biocompatible surface with a stereotypic chain of reactions. This is preceded by aggregation of plasmaproteins which initiate adhesion of monocytes. As a response to incompatibility, structural changes and fusion of those monocytes to form giant cells occur. The formation of giant cells is a key component in the development of a foreign body reaction. […] Predictability of foreign body reaction has been validated in an in-vitro model by monitoring fusion of macrophages in response to IL-4 exposition. Using this model a polymeric coating of a stainless steel support material containing variable amounts of nitro fatty acids or native fatty acids or just coated with the sole polymer were exposed to plasma with various concentrations of vitronectin.

T1 sequence (Q704Y3 whole entry): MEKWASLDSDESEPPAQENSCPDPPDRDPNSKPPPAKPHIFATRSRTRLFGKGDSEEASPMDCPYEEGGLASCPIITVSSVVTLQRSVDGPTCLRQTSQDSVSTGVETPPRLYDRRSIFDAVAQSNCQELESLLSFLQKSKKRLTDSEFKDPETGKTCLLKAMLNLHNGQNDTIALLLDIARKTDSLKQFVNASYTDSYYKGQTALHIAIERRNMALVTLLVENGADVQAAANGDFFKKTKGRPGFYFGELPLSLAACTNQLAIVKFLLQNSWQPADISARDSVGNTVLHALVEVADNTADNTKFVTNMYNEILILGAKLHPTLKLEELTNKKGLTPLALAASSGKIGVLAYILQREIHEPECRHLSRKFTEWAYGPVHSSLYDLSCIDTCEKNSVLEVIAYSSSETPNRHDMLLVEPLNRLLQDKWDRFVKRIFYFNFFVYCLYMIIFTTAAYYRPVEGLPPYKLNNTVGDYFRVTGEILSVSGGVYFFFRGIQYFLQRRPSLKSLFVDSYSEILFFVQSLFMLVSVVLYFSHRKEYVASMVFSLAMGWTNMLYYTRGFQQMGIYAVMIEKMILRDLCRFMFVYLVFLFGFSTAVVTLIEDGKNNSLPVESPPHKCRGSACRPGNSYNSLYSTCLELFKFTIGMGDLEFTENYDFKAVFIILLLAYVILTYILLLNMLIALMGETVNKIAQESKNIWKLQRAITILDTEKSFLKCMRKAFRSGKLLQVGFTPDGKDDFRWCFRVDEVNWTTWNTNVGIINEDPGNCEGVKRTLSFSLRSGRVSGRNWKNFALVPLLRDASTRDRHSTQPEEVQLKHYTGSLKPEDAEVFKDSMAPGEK

In the case of 9,10-nitro-cis-oleic acid [compound 10], the “Relative effect on TRPV-1 signal transduction (current response)” value (“Relative effect … (current response)” for short) on TRPV-1 was “++”.

For the compound `CCCCCCCC/C=C(/CCCCCCCC(=O)O)[N+](=O)[O-]` [compound 1, 9-nitro cis-oleic acid], the “Relative effect … (current response)” value on TRPV-1 is on record as “++”. For the same compound, in data set [1], the “Relative effect on NaF-induced cytotoxicity” value is on record as “++”.

Regarding `CCCCC/C=C\C/C(=C\CCCCCCCC(=O)O)[N+](=O)[O-]` [compound 2, 10-nitro-cis-linoleic acid], the “Relative effect … (current response)” value on TRPV-1 is “++”. Moreover, the “Relative effect on NaF-induced cytotoxicity” value in data set [1] is “++”.

For the compound `CCCCCCCC/C(=C/CCCCCCCC(=O)O)[N+](=O)[O-]` [compound 3, 10-nitro-cis-oleic acid], the “Relative effect … (current response)” value on TRPV-1 is “++”. Also, the “Relative effect on NaF-induced cytotoxicity” value in data set [1] is “+”.

As to `CC/C=C\C/C=C\C/C=C(/CCCCCCCC(=O)O)[N+](=O)[O-]` [compound 6, 9-nitro-all-cis-9-12,15-octadecatrienoic acid], the “Relative effect … (current response)” value at TRPV-1 was “+”.

Take `CCCCCCCCCCC/C=C(/CCCCC(=O)O)[N+](=O)[O-]` [compound 21, 6-nitro-cis-6-octadecenoic acid]: the “Relative efficacy in foreign body model” value with macrophages is “+”.

Take `CCCCCC=CCC=C(CC=CC/C=C\CCCC(=O)O)[N+](=O)[O-]` [compound 22, 11-nitro-cis-5,8,11,14-eicosatetraenoic acid]: the “Relative effect … (current response)” value on TRPV-1 is reported as “+”. The “Relative efficacy in foreign body model” value in the data set with macrophages is on record as “++”. The “Relative effect on NaF-induced cytotoxicity” value in data set [1] is on record as “++”.
